Source: patent publication US7449553B2, “Antibody that binds ceramidase” (Takara Bio Inc., priority 1999, dated 2008)

Target: T1, neutral/alkaline ceramidase derived from a mouse liver (Mus musculus, UniProt Q9JHE3)
T1 construct: the ceramidase purified from the mouse liver lacked the peptide of the N-terminal portion of the polypeptides encoded by the above-mentioned ORF; from tissue; host or cells: mouse liver (membrane fraction, purified by chromatography)
Assay: Substrate specificity of the ceramidase (degradation of 14C-labeled sphingolipids, TLC)
Type: biochemical
Conditions: for Degradation Ratio (%): 5 milliunits ceramidase on 100 pmol 14C-labeled sphingolipid, 25 mM Tris-HCl pH 7.5, 1% sodium cholate, 37° C., 24 hours; for Substrate specificity (in words): as shown in Table 1
Method: Five milliunits of the ceramidase of the present invention is acted on 100 pmol of various kinds of sphingolipids, in which the fatty acid moiety is labeled with ^14C-radioactive isotope, in […] of 25 mM Tris-hydrochloric acid buffer, pH 7.5, containing 1% sodium cholate at 37° C. for 24 hours. The reaction mixture is developed on silica gel thin layer chromatography. Thereafter, the ^14C-labeled sphingolipids and the ^14C-labeled fatty acids generated by the enzymatic reaction are detected and quantified by Imaging Analyzer BAS1000 (manufactured by Fuji Photo Film). The degradation ratio is calculated from the obtained values.

T1 sequence (Q9JHE3 75-756): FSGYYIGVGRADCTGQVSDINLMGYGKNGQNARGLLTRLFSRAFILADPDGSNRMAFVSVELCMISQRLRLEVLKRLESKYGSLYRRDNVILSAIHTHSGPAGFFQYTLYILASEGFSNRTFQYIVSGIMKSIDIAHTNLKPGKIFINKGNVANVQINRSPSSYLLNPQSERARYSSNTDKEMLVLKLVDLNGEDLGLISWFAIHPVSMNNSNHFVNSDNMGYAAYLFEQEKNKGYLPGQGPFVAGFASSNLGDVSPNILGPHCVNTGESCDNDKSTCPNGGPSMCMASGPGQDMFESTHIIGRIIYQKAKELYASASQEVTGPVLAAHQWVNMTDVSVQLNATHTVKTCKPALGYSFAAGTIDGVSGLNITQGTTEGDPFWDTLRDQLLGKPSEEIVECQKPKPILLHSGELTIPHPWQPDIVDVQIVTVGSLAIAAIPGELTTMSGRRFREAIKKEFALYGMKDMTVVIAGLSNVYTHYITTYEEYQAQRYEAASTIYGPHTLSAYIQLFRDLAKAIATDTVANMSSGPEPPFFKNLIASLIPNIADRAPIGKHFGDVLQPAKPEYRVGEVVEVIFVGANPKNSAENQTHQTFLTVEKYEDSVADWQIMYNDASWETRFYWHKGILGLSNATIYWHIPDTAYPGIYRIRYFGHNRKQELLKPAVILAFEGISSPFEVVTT

Row | Molecule | Degradation Ratio (%) | Substrate specificity (in words)
1 | CCCCCCCCCCCCC/C=C/[C@@H](O)[C@H](CO)NC(=O)CCCCCCCCCCCCCCCCC [N-Stearoylsphingosine] | 83 | –
2 | CCCCCCCCCCCCCCCCCC(=O)N[C@@H](CO)[C@H](O)[C@H](O)CCCCCCCCCCCCCC [N-Stearoylphytosphingosine] | 2 | –
3 | CCCCCCCCCCCCCCCC(=O)N[C@@H](CO)[C@H](O)CCCCCCCCCCCCCCC [N-Palmitoylsphinganine] | 59 | –
4 | CCCCCCCCCCCCCCCCCC(=O)N[C@@H](CO)[C@H](O)CCCCCCCCCCCCCCC [N-Stearoylsphinganine] | 40 | –
5 | CCCCCCCCCCCCC/C=C/[C@@H](O)[C@H](CO)NC(=O)CCCCCCCCCCC [N-Lauroylsphingosine] | 63 | –
6 | CCCCCCCCCCCCC/C=C/[C@@H](O)[C@H](CO)NC(=O)CCCCCCCCCCCCCCC [N-Palmitoylsphingosine] | 93 | –
7 | CCCCCCCCCCCCCCCC(=O)N[C@@H](CO)[C@H](O)[C@H](O)CCCCCCCCCCCCCC [N-Palmitoylphytosphingosine] | 5 | –
8 | Galactosylceramide | 0 | not acting
9 | Sphingomyelin | 0 | not acting
10 | CCCCCCCCCCCCC/C=C/[C@@H](O)[C@H](CO)NC(=O)CCCCCCCCCCCNc1ccc([N+](=O)[O-])c2nonc12 [12-((N-(7-nitrobenz-2-oxa-1,3-diazol-4-yl)amino)dodecanoyl)sphingosine] | 97 | –
11 | Sulfatide | 0 | not acting
12 | Galb1-3GalNAcb1-4(NeuAca2-3)Galb1-4G1cb1-1′Cer [GM1a] | 0 | not acting
13 | CCCCCCCCCCCCC/C=C/[C@@H](O)[C@H](CO)NC(=O)CCCCCNc1ccc([N+](=O)[O-])c2nonc12 [6-((N-(7-nitrobenz-2-oxa-1,3-diazole-4-yl)amino)hexanoyl)sphingosine] | 2 | –
